In brackets after ≈: the same amount, converted by molar mass. A value given as a limit tells only on which side of the number the result lay.

The values below come from ChEMBL document CHEMBL1240385, “Detection of KPC in Acinetobacter spp. in Puerto Rico” (2010).

What all share (assay type): functional
One assay relates to Pseudomonas aeruginosa. Briefly: Antibacterial activity against Pseudomonas aeruginosa ATCC 27853 […].
Assay [1] is described as follows: (§1) Antibacterial activity against Acinetobacter calcoaceticus/baumannii complex isolate N2AC9-19 expressing KPC beta lactamase.
Assay [2] is described as follows: (§2) Antibacterial activity against Acinetobacter calcoaceticus/baumannii complex isolate C1AC9-24 expressing KPC beta lactamase.
Assay [3] in a line: (§3) Antibacterial activity against Acinetobacter calcoaceticus/baumannii complex isolate M3AC9-2 expressing KPC beta lactamase.
Another assay concerns Escherichia coli. As to the kind of experiment: Antibacterial activity against Escherichia coli ATCC 25922 […].
Assay [4] is described as follows: (§4) Antibacterial activity against Acinetobacter calcoaceticus/baumannii complex isolate M3AC9-6 expressing KPC beta lactamase.
Assay [5] in a line: (§5) Antibacterial activity against Acinetobacter calcoaceticus/baumannii complex isolate W2AC8-S10 expressing OXA-51.
A short description of assay [6]: (§6) Antibacterial activity against Acinetobacter calcoaceticus/baumannii complex isolate M3AC9-7 expressing KPC beta lactamase.
Assay [7] in a line: (§7) Antibacterial activity against Acinetobacter calcoaceticus/baumannii complex isolate M2AC9-31 expressing KPC beta lactamase.
The nature of assay [8]: (§8) Antibacterial activity against Acinetobacter calcoaceticus/baumannii complex isolate MC1AC9-26 expressing KPC beta lactamase.
The nature of assay [9]: (§9) Antibacterial activity against Acinetobacter calcoaceticus/baumannii complex isolate MC4AC9-30 expressing KPC beta lactamase.
Assay [10] in a line: (§10) Antibacterial activity against Acinetobacter calcoaceticus/baumannii complex isolate M3AC9-4 expressing KPC beta lactamase.
Assay [11] is described as follows: (§11) Antibacterial activity against Acinetobacter calcoaceticus/baumannii complex isolate N2AC9-18 expressing KPC beta lactamase.
For assay [12], the system named is Acinetobacter calcoaceticus/baumannii complex. Described as §1.
The test system is the same in assay [13]. The assay is described as §2.
Assay [14] has the same test system. Described as §3.
For assay [15] the test system is unchanged. Described as §4.
Assay [16] has the same test system. The description is as §5.
For assay [17] the test system is unchanged. The description is as §6.
Assay [18] shares this test system. Described as §7.
Assay [19] has the same test system. The description is as §8.
Assay [20] has the same test system. The assay is described as §9.
The test system is the same in assay [21]. The description is as §10.
Assay [22] has the same test system. The assay is described as §11.

Take `CO/N=C(\C(=O)N[C@@H]1C(=O)N2C(C(=O)[O-])=C(C[N+]3(C)CCCC3)CS[C@H]12)c1csc(N)n1`: the MIC (usually the smallest concentration in the dilution series that meets the test's criterion for growth inhibition) was under 2 mg/L in the assay on Pseudomonas aeruginosa; over 16 mg/L in assay [1]; over 16 mg/L in assay [2]; over 16 mg/L in assay [3]; 2 mg/L (≈ 4.16 µM) with Escherichia coli; over 16 mg/L in [4]. For the same compound, the MIC in [5] was 2 mg/L (≈ 4.16 µM); in assay [6], over 16 mg/L; in assay [7] it was over 16 mg/L; in assay [8], over 16 mg/L; in [9], over 16 mg/L; in assay [10], over 16 mg/L. In assay [11], the MIC was over 16 mg/L.

With `NCC[C@H](O)C(=O)N[C@@H]1C[C@H](N)[C@@H](O[C@H]2O[C@H](CN)[C@@H](O)[C@H](O)[C@H]2O)[C@H](O)[C@H]1O[C@H]1O[C@H](CO)[C@@H](O)[C@H](N)[C@H]1O` [AMIKACIN], the minimum inhibitory concentration (MIC) with Pseudomonas aeruginosa was under 4 mg/L; in [1], over 32 mg/L; in assay [2] it was over 32 mg/L; in assay [3], over 32 mg/L; with Escherichia coli, 4 mg/L (≈ 6.83 µM); in assay [4], over 32 mg/L. The MIC in assay [5] was 4 mg/L (≈ 6.83 µM); in assay [6], over 32 mg/L; in assay [7], over 32 mg/L; in assay [8] it was over 32 mg/L; in assay [9], over 32 mg/L; in assay [10], over 32 mg/L. In addition, the MIC in [11] was over 32 mg/L.

With `CO/N=C(\C(=O)N[C@@H]1C(=O)N2C(C(=O)O)=C(COC(C)=O)CS[C@H]12)c1csc(N)n1` [CEFOTAXIME], the MIC with Pseudomonas aeruginosa was 16 mg/L (≈ 35.1 µM); in assay [1], over 32 mg/L; in assay [2], over 32 mg/L; in assay [3] it was over 32 mg/L; with Escherichia coli, 1 mg/L (≈ 2.2 µM); in assay [4], over 32 mg/L. The MIC in [5] is 4 mg/L (≈ 8.78 µM); in assay [6], over 32 mg/L; in [7], over 32 mg/L; in assay [8] it was over 32 mg/L; in [9] it was over 32 mg/L; in [10] it was over 32 mg/L. Moreover, in [11], the MIC is over 32 mg/L.

As to `CC(C)(O/N=C(\C(=O)N[C@@H]1C(=O)N2C(C(=O)[O-])=C(C[n+]3ccccc3)CS[C@H]12)c1csc(N)n1)C(=O)O` [CEFTAZIDIME], the MIC against Pseudomonas aeruginosa was 2 mg/L (≈ 3.66 µM); in [1], over 16 mg/L; in [2], over 16 mg/L; in assay [3] it was over 16 mg/L; in the assay on Escherichia coli, 1 mg/L (≈ 1.83 µM); in assay [4], over 16 mg/L. Moreover, the minimum inhibitory concentration (MIC) in assay [5] is 2 mg/L (≈ 3.66 µM); in assay [6], over 16 mg/L; in assay [7], over 16 mg/L; in assay [8], over 16 mg/L; in assay [9], over 16 mg/L; in assay [10], over 16 mg/L. The MIC in [11] is over 16 mg/L.

As to `O=C(O)c1cn(C2CC2)c2cc(N3CCNCC3)c(F)cc2c1=O` [CIPROFLOXACIN], the MIC in assay [5] is 0.25 mg/L (≈ 0.754 µM).

As for `C[C@@H](O)[C@H]1C(=O)N2C(C(=O)O)=C(S[C@@H]3CN[C@H](CNS(N)(=O)=O)C3)[C@H](C)[C@H]12` [DORIPENEM], the MIC was 0.5 mg/L (≈ 1.19 µM) in the assay with Pseudomonas aeruginosa; over 2 mg/L in assay [1]; over 2 mg/L in assay [2]; over 2 mg/L in assay [3]; 0.12 mg/L (≈ 0.285 µM) against Escherichia coli; over 2 mg/L in assay [4]. Also, the MIC is 0.12 mg/L (≈ 0.285 µM) in assay [5]; over 2 mg/L in assay [6]; over 2 mg/L in assay [7]; over 2 mg/L in assay [8]; over 2 mg/L in assay [9]; over 2 mg/L in assay [10]. The MIC in [11] is over 2 mg/L.

For the compound `C[C@@H](O)[C@H]1C(=O)N2C(C(=O)O)=C(SCCNC=N)C[C@H]12` [IMIPENEM ANHYDROUS], the minimum inhibitory concentration (MIC) with Pseudomonas aeruginosa is 2 mg/L (≈ 6.68 µM); in assay [1], over 8 mg/L; in assay [2], 4 mg/L (≈ 13.4 µM); in assay [3], over 8 mg/L; with Escherichia coli, 1 mg/L (≈ 3.34 µM); in assay [4] it was over 8 mg/L. For the same compound, the minimal inhibitory concentration (MIC) in assay [5] is 1 mg/L (≈ 3.34 µM); in assay [6] it was over 8 mg/L; in assay [7], 8 mg/L (≈ 26.7 µM); in assay [8] it was 8 mg/L (≈ 26.7 µM); in assay [9] it was 8 mg/L (≈ 26.7 µM); in [10] it was over 8 mg/L. The MIC in assay [11] is over 8 mg/L.

Consider `C[C@H]1COc2c(N3CCN(C)CC3)c(F)cc3c(=O)c(C(=O)O)cn1c23.C[C@H]1COc2c(N3CCN(C)CC3)c(F)cc3c(=O)c(C(=O)O)cn1c23.O` [LEVOFLOXACIN], for which the minimum inhibitory concentration (MIC) was under 1 mg/L in the assay with Pseudomonas aeruginosa; over 8 mg/L in assay [1]; over 8 mg/L in assay [2]; over 8 mg/L in assay [3]; over 8 mg/L in assay [4]; 1 mg/L in assay [5]. Moreover, the minimum inhibitory concentration (MIC) in assay [6], in [7], in assay [8], in [9], in assay [10] and in [11] was over 8 mg/L throughout.

With `C[C@@H](O)[C@H]1C(=O)N2C(C(=O)O)=C(S[C@@H]3CN[C@H](C(=O)N(C)C)C3)[C@H](C)[C@H]12` [MEROPENEM], the MIC with Pseudomonas aeruginosa was under 1 mg/L; in assay [1], over 8 mg/L; in assay [2], 4 mg/L (≈ 10.4 µM); in assay [3], over 8 mg/L; in the assay on Escherichia coli it was 1 mg/L (≈ 2.61 µM); in [4] it was over 8 mg/L. The MIC was 1 mg/L (≈ 2.61 µM) in assay [5]; over 8 mg/L in assay [6]; over 8 mg/L in [7]; over 8 mg/L in [8]; over 8 mg/L in assay [9]; over 8 mg/L in [10]. In addition, the minimum inhibitory concentration (MIC) in [11] is over 8 mg/L.

For `CN(C)c1ccc(O)c2c1C[C@H]1C[C@H]3[C@H](N(C)C)C(O)=C(C(N)=O)C(=O)[C@@]3(O)C(O)=C1C2=O` [MINOCYCLINE], the minimum inhibitory concentration (MIC) was 16 mg/L (≈ 35 µM) against Pseudomonas aeruginosa; under 2 mg/L in [1]; 8 mg/L (≈ 17.5 µM) in [2]; under 2 mg/L in assay [3]; 2 mg/L (≈ 4.37 µM) in the assay with Escherichia coli; under 2 mg/L in assay [4]. Also, the minimum inhibitory concentration (MIC) in assay [5] is 2 mg/L (≈ 4.37 µM); in assay [6], under 2 mg/L; in assay [7], under 2 mg/L; in assay [8] it was under 2 mg/L; in assay [9] it was 4 mg/L (≈ 8.74 µM); in [10] it was 4 mg/L (≈ 8.74 µM). Besides, the MIC in [11] is under 2 mg/L.

For `CN(C)c1cc(NC(=O)CNC(C)(C)C)c(O)c2c1C[C@H]1C[C@H]3[C@H](N(C)C)C(O)=C(C(N)=O)C(=O)[C@@]3(O)C(O)=C1C2=O` [TIGECYCLINE], the MIC against Pseudomonas aeruginosa was 8 mg/L (≈ 13.7 µM); in [1] it was 2 mg/L (≈ 3.41 µM); in assay [2], 1 mg/L (≈ 1.71 µM); in assay [3] it was 0.5 mg/L (≈ 0.854 µM); in the assay with Escherichia coli, 0.25 mg/L (≈ 0.427 µM); in assay [4], 0.5 mg/L (≈ 0.854 µM). The minimum inhibitory concentration (MIC) in assay [5] is under 0.25 mg/L; in [6], 0.5 mg/L (≈ 0.854 µM); in assay [7] it was 1 mg/L (≈ 1.71 µM); in assay [8], 2 mg/L (≈ 3.41 µM); in assay [9] it was 0.5 mg/L (≈ 0.854 µM); in [10], 0.25 mg/L (≈ 0.427 µM). Further, in [11], the MIC is 1 mg/L (≈ 1.71 µM).

For COLISTIN, the MIC against Pseudomonas aeruginosa is 1 mg/L; in assay [12], 0.5 mg/L; in [13], 1 mg/L; in [14], 0.5 mg/L; against Escherichia coli, 0.25 mg/L; in [15], 1 mg/L. Further, the minimal inhibitory concentration (MIC) in [16] was 0.25 mg/L; in [17] it was 1 mg/L; in [18], 0.5 mg/L; in assay [19], 0.5 mg/L; in [20], 0.5 mg/L; in assay [21], 1 mg/L. Moreover, in assay [22], the minimum inhibitory concentration (MIC) was 0.5 mg/L.

Consider GENTAMICIN, for which the MIC in the assay on Pseudomonas aeruginosa is under 1 mg/L; in [12], over 8 mg/L; in assay [13], over 8 mg/L; in assay [14] it was 2 mg/L; against Escherichia coli, 1 mg/L; in assay [15], 2 mg/L. The minimal inhibitory concentration (MIC) in [16] was 1 mg/L; in assay [17], under 1 mg/L; in [18] it was over 8 mg/L; in [19], 8 mg/L; in assay [20], over 8 mg/L; in assay [21], over 8 mg/L. The minimal inhibitory concentration (MIC) in assay [22] is over 8 mg/L.

For POLYMYXIN B, the MIC was 1 mg/L against Pseudomonas aeruginosa; under 0.25 mg/L in assay [12]; 0.5 mg/L in assay [13]; under 0.25 mg/L in [14]; 0.25 mg/L with Escherichia coli; 0.5 mg/L in assay [15]. Further, the MIC in assay [16] was 0.5 mg/L; in [17], 0.5 mg/L; in assay [18], under 0.25 mg/L; in assay [19], under 0.25 mg/L; in [20], 0.5 mg/L; in [21] it was under 0.25 mg/L. The minimal inhibitory concentration (MIC) in [22] is under 0.25 mg/L.
